In one data set the target is T1, tau protein (Homo sapiens, UniProt P10636).
T1 construct: expressed in transfected cells
Put plainly: Tau protein aggregation inhibition in tau-BiFC cell model. The format is cell-based. Particulars: tau-BiFC cells treated together with Forskolin, 48 hours. As for the experimental part: (§1) In order to select new tau protein aggregation-inhibiting materials, tau-BiFC cell models, in which it is easy to observe the formation of tau oligomers in living cells, were used. […] After 48 hours, intracellular nuclei were stained using Hoechst (treatment concentration 2 μg/mL), and BiFC fluorescence intensity was automatically quantified using Operetta (PerkinElmer) to count stained nuclei in each well from the total well plates. […] Further, the degree of cytotoxicity induced by the newly synthesized compound is also based on the 100% survival rate of the group treated with Forskolin alone, and the cytotoxicity value of the compound was calculated by the equation “number of stained nuclei in the group treated with the compound/number of stained nuclei in the group treated with Forskolin x 100”.
(§2) In order to evaluate dose-dependent tau protein aggregation inhibition effects of the compounds selected according to Experimental Example 1, the selected compounds were treated in tau-BiFC cells at concentrations of 0.03 µM, […], 0.3 μM, 1 μM, 3 μM, 10 μM, and 30 μM, respectively, together with Forskolin (treatment concentration 30 µM) as a tau protein aggregation inducing material. After 48 hours, tau protein aggregation reaction and cytotoxicity degree were analyzed by observing cell images. The IC50 and toxicity of the compounds were analyzed by nonlinear regression analysis of prism software (Graph Pad).

Another data set deals with Tau-BiFC cells. Put plainly: Cytotoxicity (cell survival rate) in tau-BiFC cells. Particulars: group treated with Forskolin alone = 100%. As for the experimental part:
as §1, §2

Data set [1] is described as follows: Pharmacokinetics in SD rat (plasma PK parameters). The format is in vivo. As to the method:
Specifically, an SD rat of 7 to 8 weeks of age (Core Tech, Hana Trading Co., Ltd.) having a body weight of about 250 g to 300 g was purchased, and was managed in a simple breeding room for small animals set to a temperature of 22° C.±2° C., a relative humidity of 50%±5%, a lighting time of 12 hours (light up at 8:00 A.M., turn off at 8:00 P.M.), and an illuminance of 150 lux to 300 lux. During the entire test period, feed was freely provided, RO water was freely provided, and fasting was performed for 16 hours before the oral administration of a drug. After preparing a drug under the conditions shown in Table 5 below, the drug was intravenously injected (IV) or orally administered (PO). 500 µL of transfused blood was collected in a tube containing sodium heparin and centrifuged at 2° C. to 8° C. at 8,000 rpm for 6 minutes to obtain plasma from the blood. The obtained plasma was added to 180 μL of acetonitrile containing internal standard materials, vortexed, and then centrifuged at 15,000 rpm at 4° C. for 5 minutes to obtain a supernatant. The obtained supernatant was analyzed by LC-MS/MS.
Specific PK parameters were acquired using the Phoenix WinNonlin version 6.4 program (Phersight, USA) and wore calculated with a non-compartmental analysis model.

Results on 28 compounds are retold here after patent US12590071B2, “Hydrazone derivative in which terminal amine group is substituted with aryl group or heteroaryl group, and use thereof” (KOREA INSTITUTE OF SCIENCE AND TECHNOLOGY, priority 2018, dated 2026).

T1 sequence (P10636 2-441 isoform P10636-8 limits assumed): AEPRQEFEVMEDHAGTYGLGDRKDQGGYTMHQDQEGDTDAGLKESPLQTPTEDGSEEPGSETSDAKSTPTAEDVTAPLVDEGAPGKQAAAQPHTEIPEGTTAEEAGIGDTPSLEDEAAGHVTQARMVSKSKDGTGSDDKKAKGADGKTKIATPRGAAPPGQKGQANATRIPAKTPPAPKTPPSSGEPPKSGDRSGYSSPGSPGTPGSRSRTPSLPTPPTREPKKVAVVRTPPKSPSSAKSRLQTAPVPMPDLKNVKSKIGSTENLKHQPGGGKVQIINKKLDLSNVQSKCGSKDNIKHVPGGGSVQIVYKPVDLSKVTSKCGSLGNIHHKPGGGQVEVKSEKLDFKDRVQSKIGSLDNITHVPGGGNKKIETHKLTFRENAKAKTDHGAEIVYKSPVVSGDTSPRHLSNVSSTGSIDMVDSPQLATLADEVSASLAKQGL

The IC50 is the concentration that inhibits the measured activity by half. A high value points to weaker potency. Regarding `Cc1nc(-c2ccc(NN=C(C#N)C#N)cc2)ncc1F` [Compound 3, (4-(5-fluoro-4-methylpyrimidin-2-yl)phenyl)carbonohydrazonoyl dicyanide], the IC50 against tau protein was determined as 2.4 µM. Moreover, in the data set with Tau-BiFC cells, the “Cell survival rate (% @ 10 μM)” value is 66%.

Compound `CCc1ccnc(-c2ccc(NN=C(C#N)C#N)cc2)n1` [Compound 6, (4-(4-ethylpyrimidin-2-yl)phenyl)carbonohydrazonoyl dicyanide] gave an IC50 against tau protein of 0.9 µM. Moreover, the “Cell survival rate (% @ 10 μM)” value with Tau-BiFC cells was determined as 147.1%.

In turn, `N#CC(C#N)=NNc1ccc(-c2ccccn2)cc1` [Compound 10, (4-(pyridin-2-yl)phenyl)carbonohydrazonoyl dicyanide] yielded an IC50 against tau protein of 0.52 µM. Moreover, the “Cell survival rate (% @ 10 μM)” value in the data set with Tau-BiFC cells is reported as 110.1%.

On tau protein, `N#CC(C#N)=NNc1ccc(-c2cncs2)cc1` [Compound 20, (4-(thiazol-5-yl)phenyl)carbonohydrazonoyl dicyanide] yielded a concentration for half-maximal inhibition (IC50) of 0.6 µM. In addition, in the data set on Tau-BiFC cells, the “Cell survival rate (% @ 10 μM)” value is listed as 90%.

For `N#CC(C#N)=NNc1ccc(-c2ncccn2)cc1F` [Compound 38, (2-fluoro-4-(pyrimidin-2-yl)phenyl)carbonohydrazonoyl dicyanide], at tau protein, the IC50 was 0.94 µM. Besides, the “Cell survival rate (% @ 10 μM)” value with Tau-BiFC cells was determined as 88.9%.

On tau protein, `N#CC(C#N)=NNc1ccc(-c2ncccn2)c(F)c1` [Compound 39, (3-fluoro-4-(pyrimidin-2-yl)phenyl)carbonohydrazonoyl dicyanide] displayed an IC50 of 1.51 µM. The “Cell survival rate (% @ 10 μM)” value with Tau-BiFC cells turned out to be 89.8%.

Compound `Cc1ccnc(-c2ccc(NN=C(C#N)C#N)cc2F)n1` [Compound 40, (3-fluoro-4-(4-methylpyrimidin-2-yl)phenyl)carbonohydrazonoyl dicyanide] had a half-inhibitory concentration (IC50) at tau protein of 2.5 µM. Further, the “Cell survival rate (% @ 10 μM)” value in the data set with Tau-BiFC cells turned out to be 101.3%.

For the compound `COc1cc(-c2ncc(C)cn2)ccc1NN=C(C#N)C#N` [Compound 41, (2-methoxy-4-(5-methylpyrimidin-2-yl)phenyl)carbonohydrazonoyl dicyanide], 7 µM corresponded to half-maximal inhibition on tau protein (IC50). For the same compound, in the data set on Tau-BiFC cells, the “Cell survival rate (% @ 10 μM)” value worked out at 126.8%.

`COc1cc(-c2ncccn2)ccc1NN=C(C#N)C#N` [Compound 43, (2-methoxy-4-(pyrimidin-2-yl)phenyl)carbonohydrazonoyl dicyanide]: on tau protein, half-maximal inhibition (IC50) was put at 1.84 µM. In addition, in the data set on Tau-BiFC cells, the “Cell survival rate (% @ 10 μM)” value came out at 112.3%.

In turn, `N#CC(C#N)=NNc1ccc(-c2cnc3nccn3c2)cc1` [Compound 51, (4-(imidazo[1,2-a]pyrimidin-6-yl)phenyl)carbonohydrazonoyl dicyanide] came in with an IC50 against tau protein of 7.42 µM. The “Cell survival rate (% @ 10 μM)” value in the data set with Tau-BiFC cells is recorded as 84.2%.

Compound `N#CC(C#N)=NNc1ccc(-c2cnc3ccccc3n2)cc1` [Compound 52, (4-(quinoxalin-2-yl)phenyl)carbonohydrazonoyl dicyanide] yielded an IC50 against tau protein of 1.4 µM. For the same compound, in the data set with Tau-BiFC cells, the “Cell survival rate (% @ 10 μM)” value was 139.6%.

On to `N#CC(C#N)=NNc1ccc(-c2ccc3nccn3c2)cc1` [Compound 53, (4-(imidazo[1,2-a]pyridin-6-yl)phenyl)carbonohydrazonoyl dicyanide], for which, on tau protein, the midpoint of inhibition, the IC50, lay at 1.3 µM. In addition, the “Cell survival rate (% @ 10 μM)” value in the data set with Tau-BiFC cells is 158.2%.

A word on the Cmax: it is the peak of the concentration-time curve. As usually defined, the Tmax is the time at which the peak concentration occurs. A word on the clearance: it is the volume of plasma or blood freed of the substance per unit of time. Read a low clearance as inefficient removal. As usually defined, the half-life is the time needed for the level to fall by half in the phase considered. The low end stands for rapid decline, the high end for slow decline. Turning to `Cn1cc2cc(-c3ccc(NN=C(C#N)C#N)cc3)ccc2n1` [Compound 56, (4-(2-methyl-2H-indazol-5-yl)phenyl)carbonohydrazonoyl dicyanide], in data set [1] (SD rat plasma, IV 2 mg/kg), the AUCall is 17481.28 hr, ng/mL; the concentration peaked (Cmax) at 9.14 µg/mL; the Tmax is 0.12 h; the clearance is 0.111 L/h/kg. Further, the half-life in data set [1] (SD rat plasma, IV 2 mg/kg) is 1.57 h. In data set [1] (SD rat plasma, PO 10 mg/kg), the AUCall is reported as 77995.11 hr, ng/mL; the concentration peaked (Cmax) at 11.4 µg/mL; the Tmax is 1.5 h; the half-life is 3.21 h. The F in data set [1] (SD rat, PO 10 mg/kg versus IV) is 89.2%.

`N#CC(C#N)=NNc1ccc(-c2ccc3[nH]ccc3c2)cc1` [Compound 58, (4-(1H-indol-5-yl)phenyl)carbonohydrazonoyl dicyanide] gave a half-inhibitory concentration (IC50) against tau protein of 1.2 µM. The “Cell survival rate (% @ 10 μM)” value with Tau-BiFC cells is given as 113.8%.

For the compound `COc1cccc2sc(NN=C(C#N)C#N)nc12` [Compound 59, (4-methoxybenzo[d]thiazol-2-yl)carbonohydrazonoyl dicyanide], the midpoint of inhibition against tau protein, the IC50, lay at 0.5 µM. Also, in the data set on Tau-BiFC cells, the “Cell survival rate (% @ 10 μM)” value amounted to 120.3%.

On to `N#CC(C#N)=NNc1cnc2ccccc2c1` [Compound 64, quinolin-3-ylcarbonohydrazonoyl dicyanide], for which the IC50 against tau protein was determined as 0.19 µM. The “Cell survival rate (% @ 10 μM)” value in the data set on Tau-BiFC cells turned out to be 112.5%.

The compound `Cn1cc2ccc(NN=C(C#N)C#N)cc2n1` [Compound 65, (2-methyl-2H-indazol-6-yl)carbonohydrazonoyl dicyanide] had an IC50 at tau protein of 0.072 µM. Besides, in the data set with Tau-BiFC cells, the “Cell survival rate (% @ 10 μM)” value is given as 103.3%.

`Cn1ncc2cc(NN=C(C#N)C#N)ccc21` [Compound 66, (1-methyl-1H-indazol-5-yl)carbonohydrazonoyl dicyanide]: at tau protein, the IC50 is 0.012 µM. The “Cell survival rate (% @ 10 μM)” value in the data set with Tau-BiFC cells is on record as 96.8%.

Turning to `Cn1ccc2cc(NN=C(C#N)C#N)ccc21` [Compound 68, (1-methyl-1H-indol-5-yl)carbonohydrazonoyl dicyanide], the IC50 on tau protein is 0.06 µM. Besides, in the data set on Tau-BiFC cells, the “Cell survival rate (% @ 10 μM)” value was 177.2%.

As for `N#CC(C#N)=NNc1ccc2[nH]ccc2c1` [Compound 71, (1H-indol-5-yl)carbonohydrazonoyl dicyanide], at tau protein, half-maximal inhibition (IC50) was put at 0.86 µM. For the same compound, in the data set on Tau-BiFC cells, the “Cell survival rate (% @ 10 μM)” value turned out to be 116.4%.

`Cc1n[nH]c2cc(NN=C(C#N)C#N)ccc12` [Compound 73, (3-methyl-1H-indazol-6-yl)carbonohydrazonoyl dicyanide]: the IC50 on tau protein was 1.1 µM. Further, the “Cell survival rate (% @ 10 μM)” value in the data set on Tau-BiFC cells worked out at 138.5%.

Consider `Cn1ccc2cc(NN=C(C#N)C#N)cnc21` [Compound 76, (1-methyl-1H-pyrrolo[2,3-b]pyridin-5-yl)carbonohydrazonoyl dicyanide], for which the IC50 at tau protein is 0.04 µM. Moreover, the “Cell survival rate (% @ 10 μM)” value with Tau-BiFC cells was 195.8%.

`Cc1c[nH]c2ncc(NN=C(C#N)C#N)cc12` [Compound 82, (3-methyl-1H-pyrrolo[2,3-b]pyridin-5-yl)carbonohydrazonoyl dicyanide] displayed an IC50 on tau protein of 0.43 µM. Besides, the “Cell survival rate (% @ 10 μM)” value in the data set on Tau-BiFC cells amounted to 120.2%.

For `N#CC(C#N)=NNc1ccc2nc(NC(=O)c3cncnc3)sc2c1` [Compound 94, (2-(pyrimidine-5-carboxamido)benzo[d]thiazol-6-yl)carbonohydrazonoyl dicyanide], inhibition against tau protein was half-maximal at 2.7 µM (IC50). In addition, the “Cell survival rate (% @ 10 μM)” value with Tau-BiFC cells is 95.3%.

Compound `Cc1ncc(C(=O)Nc2nc3ccc(NN=C(C#N)C#N)cc3s2)cn1` [Compound 95, (2-(2-methylpyrimidine-5-carboxamido)benzo[d]thiazol-6-yl)carbonohydrazonoyl dicyanide] gave an IC50 at tau protein of 0.8 µM. The “Cell survival rate (% @ 10 μM)” value in the data set with Tau-BiFC cells was found to be 100.8%.

In turn, `Cc1ncncc1C(=O)Nc1nc2ccc(NN=C(C#N)C#N)cc2s1` [Compound 96, (2-(4-methylpyrimidine-5-carboxamido)benzo[d]thiazol-6-yl)carbonohydrazonoyl dicyanide] displayed a half-inhibitory concentration (IC50) on tau protein of 0.4 µM. Besides, the “Cell survival rate (% @ 10 μM)” value in the data set with Tau-BiFC cells is recorded as 106.1%.

`C#Cc1cnc(-c2ccc(NN=C(C#N)C#N)cc2)nc1` [Compound 149, (4-(5-ethynylpyrimidin-2-yl)phenyl)carbohydrazonoyl dicyanide] showed an IC50 against tau protein of 0.1 µM. Besides, the “Cell survival rate (% @ 10 μM)” value in the data set on Tau-BiFC cells was found to be 113.9%.

With “(2-(pyrazine-2-carboxamido)benzo[d]thiazol-5-yl)carbonohydrazonoyl dicyanide [Compound 99]”, the IC50 against tau protein was 0.1 µM. For the same compound, in the data set on Tau-BiFC cells, the “Cell survival rate (% @ 10 μM)” value came out at 113.1%.
